Results: patent US8148424B2, “Tocopherols, tocotrienols, other chroman and side chain derivatives and uses thereof” (Research Development Foundation, priority 1998, dated 2012)
In brackets after ≈: the same amount, converted by molar mass. Read-outs that look alike come from different tables or passages of the source. Each block holds one compound with its values, some of them ahead of it.

What was measured:
MDA-MB-435 cells [1] = assay: DNA synthesis arrest by 3H-uptake (Example 8); assay type: cell-based, human; conditions: for EC50: MDA-MB-435, 2% serum, 3H-uptake at one day treatment
Procedure: (§1) MDA-MB-435 and MCF-7 cells at 1.5×10^5/well in 12 well plates for apoptosis and 1.5×10^4/well in 96 well plates for DNA synthesis arrest were incubated overnight in culture media and treated with α-tocopherol, α-tocotrinel, compound 1, 6-0-carboxymethyl alpha-tocotrienol (6-0-CM-α-T, 44), and vitamin E succinate (VES) at different concentrations in experimental media (2% serum for MDA-MB-435 cells and 5% serum for MCF-7 cells). DNA synthesis arrest was determined by ^3H-uptake at one day treatment and apoptosis was detected by DAPI staining at three day treatment. EC50 was calculated as the dosage of test compounds that gave 50% growth inhibition.

MCF-7 cells [2] = assay: DNA synthesis arrest by 3H-uptake (Example 8); assay type: cell-based, human; conditions: 3H-uptake at one day treatment
Procedure: as §1

MDA-MB-435 cells [3] = assay: Apoptosis by DAPI staining (Example 8); assay type: cell-based, human; conditions: for EC50: MDA-MB-435, 2% serum, DAPI staining at three day treatment
Procedure: as §1

MCF-7 cells [4] = assay: Apoptosis by DAPI staining (Example 8); assay type: cell-based, human; conditions: 5% serum, DAPI staining at three day treatment
Procedure: as §1

[5] = tested on: breast tumor cell line MDA-MB-435; assay: Bioassay for DNA synthesis arrest, naturally occurring vitamin E compounds; assay type: cell-based, human; conditions: Table 1
Procedure: Table 1 provides tumor growth inhibitory properties of naturally occurring vitamin E compounds against the breast tumor cell line MDA-MB-435.
To assay DNA synthesis, all cells were used at 2.5×10^5/ml. Cells were treated with each of the compounds at concentrations of 0.01, 0.1, 1, 5, 10 and 20 μg/mL and 200 μl of each treatment group were plated in quadruplicate in a 96 well culture plate (Corning, Corning N.Y.). Experiments were done in duplicate, one plate used for viability testing and the other plate for examination of ^3H-TdR uptake to monitor DNA synthesis. Plates were cultured for 48 hours at 37° C., 5% CO2. Eight hours prior to the end of incubation, ^3H-TdR was added to one of the duplicate plates and incubation continued for 8 hours.
The cells were then harvested (trypsinization was required to harvest adherent cells), and isotope uptake was determined as counts per minute (cpm). For viability studies, at the end of the incubation, the cells were removed from the wells and viability checked by the Trypan Blue Exclusion method. Percent viability and percent DNA synthesis in comparison to untreated or vehicle treated cells of each treatment group were calculated.

MDA-MB-435 = assay: Bioassay for apoptosis (apoptotic EC50); assay type: cell-based, human
Procedure: (§2) Cells were cultured at 1.5×10^5 cells/well in 12 well plates. Cells were allowed to adhere overnight, then incubated with novel test compounds at 0.01, 0.1, 1, 5, 10 & 20 μg/mL for 1, 2 and 3 days. After treatment, cells (floating+trypsin released adherent cells) were pelleted, washed and stained with 2 μg/ml DAPI (4′,6-diamidine-2′-phenylindole dihydrochloride) in 100% methanol for 15 minutes at 37° C. and/or 3′-OH ends resulting from DNA fragmentation were detected with the TUNEL (terminal deoxynucleotidyl transferase-mediated dUTP-X 3′ nick end-labeling) technique, and then viewed using a Zeiss ICM 405 microscope. Cells whose nucleus contained clearly condensed or fragmented chromatin or stained for fragmented DNA in the TUNEL assay were scored as apoptotic. Data are presented as percent cells undergoing apoptosis.

DLD-1 = assay: Bioassay for apoptosis (apoptotic EC50); assay type: cell-based, human; conditions: Homo sapiens, unit inferred
Procedure: as §2

MCF-7 = assay: Bioassay for apoptosis (apoptotic EC50); assay type: cell-based, human; conditions: Homo sapiens, MCF7, MCF-7; unit inferred
Procedure: as §2

HT-29 = assay: Bioassay for apoptosis (apoptotic EC50); assay type: cell-based, human; conditions: Homo sapiens, unit inferred
Procedure: as §2

PC-3 = assay: Bioassay for apoptosis (apoptotic EC50); assay type: cell-based, human; conditions: Homo sapiens, PC-3, PC-3; unit inferred
Procedure: as §2

RL-95-2 = assay: Bioassay for apoptosis (apoptotic EC50); assay type: cell-based, human; conditions: Homo sapiens, RL95-2, RL-95-2; unit inferred
Procedure: as §2

ME-180 = assay: Bioassay for apoptosis (apoptotic EC50); assay type: cell-based, human; conditions: Homo sapiens, ME-180, ME-180; unit inferred
Procedure: as §2

DU-145 = assay: Bioassay for apoptosis (apoptotic EC50); assay type: cell-based, human; conditions: Homo sapiens, unit inferred
Procedure: as §2

LnCaP = assay: Bioassay for apoptosis (apoptotic EC50); assay type: cell-based, human; conditions: Homo sapiens, unit inferred
Procedure: as §2

C-170 = assay: Bioassay for apoptosis (apoptotic EC50); assay type: cell-based, human; conditions: Homo sapiens, C170, C-170; unit inferred
Procedure: as §2

[6] = tested on: human cancer cells from a wide variety of cell lineages; assay: Apoptosis induction in a battery of tumor cells; assay type: cell-based; conditions: breast, prostate, leukemia/lymphoid, cervical, ovarian, endometrial, colon, lung cell lines
Procedure: as §2

MCF-10A = assay: Bioassay for apoptosis (apoptotic EC50); assay type: cell-based; conditions: Homo sapiens, unit inferred
Procedure: as §2

A-549 = assay: Bioassay for apoptosis (apoptotic EC50); assay type: cell-based, human; conditions: Homo sapiens, A549, unit inferred
Procedure: as §2

HL-60 = assay: Bioassay for apoptosis (apoptotic EC50); assay type: cell-based, human; conditions: Homo sapiens, HL-60, HL-60; unit inferred
Procedure: as §2

Jurkat = assay: Bioassay for apoptosis (apoptotic EC50); assay type: cell-based, human; conditions: Homo sapiens, unit inferred
Procedure: as §2

T47D = assay: Bioassay for apoptosis (apoptotic EC50); assay type: cell-based; conditions: Homo sapiens, unit inferred
Procedure: as §2

PREC = assay: Bioassay for apoptosis (apoptotic EC50); assay type: cell-based; conditions: Homo sapiens, unit inferred
Procedure: as §2

[7] = MDA-MB-435, Table 1, read-out: EC50 for Apoptosis
[8] = Homo sapiens, MDA-MB-435, MDA-MB-435, unit inferred, read-out: apoptotic EC50

Compound: CC(C)=CCC/C(C)=C/CC/C(C)=C/CC[C@]1(C)CCc2c(C)c(OCC(=O)O)c(C)c(C)c2O1 [Compound 44]
EC50 (MDA-MB-435 cells [1]; Homo sapiens): 2.5 µM
antitumor activity (DNA synthesis arrest) higher than alpha-tocotrienol (MDA-MB-435 cells [1]; MDA-MB-435 and MCF-7): 8-12 fold
antitumor activity (DNA synthesis arrest) higher than compound 1 (MDA-MB-435 cells [1]; MDA-MB-435 and MCF-7): 4-6 fold
antitumor activity (DNA synthesis arrest) higher than vitamin E succinate (MDA-MB-435 cells [1]; MDA-MB-435 and MCF-7): 4-7 fold
EC50 (MCF-7 cells [2]; Homo sapiens, MCF7, 5% serum): 5 µM
EC50 (MDA-MB-435 cells [3]; Homo sapiens, 72 h): 5.6 µM
induction of apoptosis higher than alpha tocotrienol (MDA-MB-435 cells [3]; MDA-MB-435 and MCF-7): 4-12 fold
induction of apoptosis higher than compound 1 (MDA-MB-435 cells [3]; MDA-MB-435 and MCF-7): 4-5 fold
induction of apoptosis higher than vitamin E succinate (MDA-MB-435 cells [3]; MDA-MB-435 and MCF-7): 4-6 fold
EC50 (MCF-7 cells [4]; Homo sapiens, MCF7, 72 h): 10 µM

Compound: Cc1c(O)cc2c(c1C)O[C@](C)(CCC[C@H](C)CCC[C@H](C)CCCC(C)C)CC2 [γ-tocopherol, reference compound]
EC50 [5]: > 400 µM
EC50 (MDA-MB-435; [7]): 300 µM

Compound: Cc1c(C)c2c(c(C)c1OCC(=O)O)C=C[C@@](C)(CCC[C@H](C)CCC[C@H](C)CCCC(C)C)O2 [Compound 20, 2,5,7,8-tetramethyl-(2R-(4R,8R,12-trimethyltridecyl)chroman-3-ene-6-yloxy)acetic acid]
EC50 (MCF-7): 5 to 10 µg/mL (≈ 10.3 to 20.5 µM)
EC50 (A-549): 20 to 30 µg/mL (≈ 41.1 to 61.6 µM)
EC50 (PC-3): 5 to 10 µg/mL (≈ 10.3 to 20.5 µM)
EC50 (HL-60): 10 µg/mL (≈ 20.5 µM)
EC50 (MDA-MB-435; [8]): 10 to 20 µg/mL
EC50 (ME-180): 1 to 5 µg/mL (≈ 2.05 to 10.3 µM)
EC50 (Jurkat): 10 to 20 µg/mL (≈ 20.5 to 41.1 µM)
EC50 (DU-145): 5 to 10 µg/mL (≈ 10.3 to 20.5 µM)
EC50 (LnCaP): 5 to 10 µg/mL (≈ 10.3 to 20.5 µM)
growth inhibitory (apoptotic inducing) properties specific for human cancer cells [6]: effective
EC50 (T47D): 5 to 10 µg/mL (≈ 10.3 to 20.5 µM)
EC50 (MCF-10A): > 20 µg/mL

Compound: CC(C)=CCC/C(C)=C/C=C/C(C)=C/[C@]1(C)CCc2c(C)c(OCC(=O)O)c(C)c(C)c2O1 [Compound 18]
EC50 (MCF-7): > 20 µg/mL
EC50 (HT-29): > 20 µg/mL
EC50 (A-549): > 20 µg/mL
EC50 (HL-60): > 20 µg/mL
EC50 (MDA-MB-435; [8]): > 20 µg/mL
EC50 (ME-180): > 20 µg/mL
EC50 (Jurkat): > 20 µg/mL
EC50 (C-170): > 20 µg/mL
EC50 (PREC): > 20 µg/mL

The next lines start with results.

EC50 [5]: 40 µM
EC50 (MDA-MB-435 cells [1]): 29 µM
EC50 (MCF-7 cells [2]; 5% serum): 40 µM
EC50 (MDA-MB-435; [7]): 50 µM
EC50 (MDA-MB-435 cells [3]): 66 µM
EC50 (MCF-7 cells [4]): 40 µM
Compound: α-tocotrienol [reference compound]

EC50 (DLD-1): > 20 µg/mL
EC50 (MCF-7): > 20 µg/mL
EC50 (HT-29): > 20 µg/mL
EC50 (PC-3): 20 to 30 µg/mL (≈ 39.8 to 59.7 µM)
EC50 (RL-95-2): > 20 µg/mL
EC50 (MDA-MB-435; [8]): > 20 µg/mL
EC50 (ME-180): > 20 µg/mL
EC50 (DU-145): 20 to 30 µg/mL (≈ 39.8 to 59.7 µM)
EC50 (LnCaP): > 20 µg/mL
EC50 (C-170): > 20 µg/mL
Compound: CCCCCCCCCCCCCCCCC[C@]1(C)CCc2c(C)c(OCC(=O)O)c(C)c(C)c2O1 [Compound 25, 2,5,7,8-tetramethyl-(2R-(heptadecyl)chroman-6-yloxy)acetic acid]
growth inhibitory (apoptotic inducing) properties specific for human cancer cells [6]: effective
EC50 (MCF-10A): > 20 µg/mL

EC50 [5]: 5 µM
EC50 (MDA-MB-435; [7]): 5 µM
Compound: CC(C)=CCC/C(C)=C/CC/C(C)=C/CC[C@]1(C)CCc2cc(O)cc(C)c2O1 [δ-tocotrienol, reference compound]
